{"source": "patent US8151795B2", "about": "“Method of demand valve oxygen therapy for rapid abort of cluster headache” (Linde AG, priority 2008, dated 2012)", "key": {"[1]": {"test_system": "cluster headache patients", "details": "nasal spray at doses of 5 and 10 mg; cited from earlier work"}, "[2]": {"test_system": "cerebral blood flow", "details": "5% carbon dioxide; young men; cited from earlier work"}, "[3]": {"test_system": "pulmonary ventilation rate", "details": "increase of about 0.25% alveolar carbon dioxide; cited from earlier work"}, "[4]": {"test_system": "patients with episodic and chronic cluster headache", "details": "episodic and chronic disease; cited from earlier work"}, "[5]": {"test_system": "cluster headache sufferers", "source_text": "It is critical that the cluster headache sufferer fully inhale and exhale as completely as possible during the first three phases of the method of the present invention, in order to insure more complete ventilation of the lungs during hyperventilation and the expelling of carbon dioxide, a vasodilative agent, as rapidly as possible. The four phases of the invented demand valve method are herein described in more detail.\nTaking three to four very deep breaths of oxygen from the demand valve, exhaling and inhaling as completely as possible with each breath, starts the process of clearing the residual Nitrogen from the lungs and also starts the shift into hyperoxia, which can be defined as having more oxygen in the blood than normal.\nIn Phase 3, slow hyperventilation, which has a recommended respiration rate of 30 breaths per minute, the purpose is to maintain the benefits of hyperventilation, respiratory alkalosis, hypocapnia, and hyperoxia, but at a more comfortable respiration rate. […] The cluster headache sufferer should maintain this respiration rate until the cluster headache pain has clearly subsided."}, "[6]": {"test_system": "cluster headache patients", "details": "cited from earlier work; for headache response: Rozen 2004; for subjects in whom oxygen is effective: standard of care continuous flow"}, "[7]": {"test_system": "cluster headache patients", "details": "cited from earlier work"}, "[8]": {"test_system": "cerebral blood flow", "details": "cited from earlier work"}, "[9]": {"test_system": "Extracerebral Flow Index", "details": "cluster headache patients during headache interval, during 100% oxygen inhalation; cited from earlier work"}, "[10]": {"test_system": "normal human subjects", "details": "cited from earlier work"}, "[11]": {"test_system": "cluster headache patients", "details": "cited from earlier work", "remark": "listed apart in the source"}, "[12]": {"details": "after 10 minutes of oxygen inhalation"}}, "note": "Several values for one entry are separate records, joined by “and”; a condition that tells them apart may be missing. Equal values may be shown once. Read-outs that look alike come from different tables or passages of the source."}
{"smiles": "CN(C)CCc1c[nH]c2ccc(C[C@H]3COC(=O)N3)cc12", "note": "[Zolmitriptan]", "values": [{"measurement": "acute treatment of cluster headache", "setting": "[1]", "result": "effective and tolerable"}]}
{"smiles": "O=C=O", "note": "[carbon dioxide]", "values": [{"measurement": "increase in CBF", "setting": "[2]", "result": 59, "unit": "%"}, {"measurement": "increase in pulmonary ventilation rate", "setting": "[3]", "result": 100, "unit": "%"}]}
{"smiles": "O=O", "note": "[hyperbaric oxygen]", "values": [{"measurement": "prophylactic effect", "setting": "[4]", "result": "no significant prophylactic effect"}]}
{"smiles": "O=O", "note": "[oxygen]", "values": [{"measurement": "re-attacks (attack 15 to 45 minutes after successful abort), incidence per aborts", "setting": "[5]; Kip pain level high (7-8) and abort times less than 15 min", "result": "1 out of 4"}, {"measurement": "success rate of aborting cluster headache", "setting": "[5]; demand valve method, chronic sufferers over 50, attacks of Kip 8 pain level or below", "result": "95% and > 95%"}, {"measurement": "reduction of time for complete abort vs non-rebreathing mask with 15 l/min continuous flow oxygen", "setting": "[5]; demand valve method, same pain level", "result": "~50", "unit": "%"}, {"measurement": "time to abort", "setting": "[5]; demand valve method, the one Kip 9 cluster headache recorded", "result": 25, "unit": "min"}, {"measurement": "adverse effects or symptoms", "setting": "[5]; many months of continuous use, other than dry mouth", "result": "no adverse effects or symptoms encountered"}, {"measurement": "re-attacks after extending oxygen use after abort", "setting": "[5]; total of 20 minutes of continuous oxygen inhalation", "result": "largely or totally eliminated"}, {"measurement": "time to being effective", "setting": "[6]; 7 to 12 l/min continuous flow, non-rebreathing mask", "result": "≤ 5", "unit": "min"}, {"measurement": "adverse effects of oxygen for cluster headache", "setting": "[6]; Ekbom 2002, Matharu 2003", "result": "no established adverse effects"}, {"measurement": "patients obtaining significant relief from cluster pain", "setting": "[6]; Kudrow 1981, cessation of pain within 15 minutes for at least 7 of 10 attacks", "result": 75, "unit": "%"}, {"measurement": "least benefit", "setting": "[6]; Kudrow 1981, chronic patients over 49 years of age", "result": 57, "unit": "%"}, {"measurement": "greatest benefit", "setting": "[6]; Kudrow 1981, episodic patients under 50 years of age", "result": 92.9, "unit": "%"}, {"measurement": "headache response", "setting": "[6]; 7-10 l/min flow rate", "result": "no change in headache intensity"}, {"measurement": "headache response", "setting": "[6]; higher flow rate (15 l/min)", "result": "complete or near-complete headache alleviation"}, {"measurement": "patients having success", "setting": "[6]; chronic patients, standard of care oxygen therapy", "result": 68.4, "unit": "%"}, {"measurement": "patients responding favorably", "setting": "[6]; episodic patients, standard of care oxygen therapy", "result": 78, "unit": "%"}, {"measurement": "subjects in whom oxygen is effective", "setting": "[6]; non-rebreathing mask", "result": "~70", "unit": "%"}, {"measurement": "subjects in whom oxygen is effective", "setting": "[6]; non-rebreathing mask, listed as 100% oxygen", "result": 70, "unit": "%"}, {"measurement": "patients noting oxygen simply delays the attack rather than aborting it", "setting": "[6]; standard of care method (Matharu 2003)", "result": "up to 25%"}, {"measurement": "average decrease of superficial temporal artery pulse amplitude", "setting": "[7]; [12]", "result": 30, "unit": "%"}, {"measurement": "patients with decreased pulse amplitude of superficial temporal artery, symptomatic side", "setting": "[7]; [12]", "result": "15 of the 16"}, {"measurement": "headache subsiding almost completely", "setting": "[7]; after 15 minutes, 16 patients studied", "result": 12, "unit": "patients"}, {"measurement": "patients reporting at least some relief", "setting": "[7]; after breathing 100% oxygen for 10 minutes", "result": "15 of 16"}, {"measurement": "decrease in CBF", "setting": "[8]; Floyd 2003, transition from air to 100% O2 at 1.0 ATA, MRI", "result": 33, "unit": "%"}, {"measurement": "CBF values for temporal cortex and basal ganglia", "setting": "[8]; Kawamura 1991, after 100% oxygen for five minutes, five cluster headache patients", "result": "significantly decreased below normal values"}, {"measurement": "decrease of cerebral blood flow", "setting": "[8]; Kety, healthy young male volunteers", "result": "approximately 13%"}, {"measurement": "reduction of Fg (CBF in gray brain matter)", "setting": "[8]; Sakai 1979, normal volunteers of both sexes", "result": "9.4+/−5.4%"}, {"measurement": "EFI values", "setting": "[9]", "result": "7+/−2%"}, {"measurement": "toxic effects", "setting": "[10]; Kafer 1971, within 3 hours of exposure", "result": "no toxic effects"}, {"measurement": "duration for which exposure is safe", "setting": "[10]; Sackner 1975, atmospheric pressure", "result": "less than 6 hours"}, {"measurement": "earliest occurrence of substernal stress after start of oxygen breathing", "setting": "[10]; Sackner 1975", "result": 4, "unit": "h"}]}
{"smiles": "CNS(=O)(=O)Cc1ccc2[nH]cc(CCN(C)C)c2c1", "note": "[sumatriptan]", "values": [{"measurement": "patients in whom effective (pain free in 20 minutes)", "setting": "[11]; 6 mg injected subcutaneously, double blind placebo controlled trials", "result": "about 75%"}, {"measurement": "lower effectiveness in chronic than in episodic cluster", "setting": "[11]; sumatriptan injection (Rozen 2002)", "result": 8, "unit": "%"}]}
